Data: patent publication US4835160A, “Derivatives of pyridoindole, having anti-tumor properties” (Sanofi, priority 1986, dated 1989)

Key:
leukemia P 388 = assay: Test of leukemia P 388; IP/IP, D1-5; format: in vivo, CDF1 hybrid mice; details: D1-D5; for Number of survivors: day D30; for T/C %: survival time
Method in brief: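 CDF1 hybrid mice received 10^6 P 388 cells intraperitoneally, then compound in distilled water by intraperitoneal route daily D1-D5, 10 mice per group, 5-fluorouracil as positive control. Activity judged as T/C survival time versus untreated controls, survivors counted at D30; T/C ≤85% or day 5 minus day 1 weight change ≤ −4 g counted as toxic.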

in vivo [1] = assay: in vivo; parameters: species or system female CDF1 hybrid mice; details: mouse, iv, 50 mg/kg
Experimental: In addition the administration, to healthy female CDF1 hybrid mice, in a single injection by intravenous route with a perfusor, lasting 4 minutes, of the compounds under test in solution in physiological serum at a rate of 0.1 ml of solution per 10 g weight of the animals has enabled it to be established that the compounds are also well tolerated at a high dosage in these conditions.

leukemia P388 = assay: Test for leukemia P388, IP/IP, D1; format: in vivo, CDF1 hybrid mice; details: for Number of survivors: day D30; for T/C %: survival time
Experimental: The antitumour activity was tested in vivo on various tumours inoculated in various ways according to the following general protocol:
All the male or female mice are inoculated on day D0 with a known quantity of viable tumour cells for ascitic tumours or with a known tumour fragment for solid tumours.
They are then distributed into various groups. Each group, corresponding to the animals treated by the product under test, is made up of 10 mice. The product under test is dissolved in distilled water and it is administered n times (Dx-Dy), n, y, and x varying according to the protocol chosen, at the rate of 0.1 ml of solution per 10 g by weight of mice treated and at specific doses for each protocol.
The "negative control" group, corresponding to the animals which are not treated by the product, contains 2√N animals, N being equal to or greater than the total number of mice treated by the product in the same experiment.
Finally, the tests can also be carried out at the same time as the study of a group called "positive control", of ten animals, which is treated by a molecule, known for its antitumour activity and which can vary according to the protocol chosen, in the same conditions as the groups treated by the product under test.
The antitumour activity is evaluated, in the case of ascitic tumours, by considering the increase in the survival time of the animals treated in comparison to that of the animals in the "negative control" group, according to the formula: [formula]
Also, a product is considered as toxic at the dose studied when this T/C value is equal to or less than 85%. In addition, a product is also considered as toxic at the dose studied when the weight variation, expressed in grams and calculated by the formula: […]
The tests are carried out with CDF1 hybrid mice inoculated by intraperitoneal route with 10^6 leukemia cells from the P 388 line. The compound under test is administered for 5 successive days (D1-D5) by intraperitoneal route. The positive control for the test is 5-fluorouracile which is administered in the same conditions. The number of surviving animals is evaluated on day D30.
(b) Test for Leukemia P388, IP/IP, D1 (GERAN et al. Cancer chemother., 1972, 2, 07-57).
The test is carried out according to the preceding protocol, the compound under test being administered only on day D1.

in vivo [2] = assay: in vivo; parameters: species or system CDF1 hybrid mice; details: mouse, ip, 25 mg/kg
From the text: The compounds of the invention benefit from a good tolerance and a weak toxicity.
Thus the administration, to healthy CDF1 hybrid mice, in a single injection by intraperitoneal route, of the compounds under test, has enabled it to be established that the product is perfectly tolerated at a high dosage since the survival rate of the animals of the experiment was 100 out of 100 thirteen days after administration.

melanoma B 16 = assay: Test for melanoma B 16; format: in vivo, BDF1 hybrid mice; details: D1-D9; for Number of survivors: day D60; for T/C %: survival time
Method in brief: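 BDF1 mice inoculated i.p. with 0.5 ml B16 melanoma homogenate (1 g tumour in 10 ml physiological serum); compound given i.p. daily D1–D9, Cis-platine positive control under same conditions. Surviving animals counted on D60; activity as survival increase vs untreated controls (T/C), toxicity if T/C ≤85%.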

Question: For `Cc1cnc(NCCCN(C)C)c2c3cc(O)ccc3n(C)c12` [Derivative No. 14, 4,5-dimethyl 1(3-dimethylaminopropylamino)-8-hydroxy-5H-pyrido[4,3-b]indole], which “Median day of survival” value (leukemia P 388; 2.5 mg/kg IP) is on record?
Answer: Its value is 19.25 days.

Question: And the “Variation by weight (g)” value (leukemia P 388; 2.5 mg/kg IP)?
Answer: Its value is “+0.9 g”.

Question: What about the Number of survivors (leukemia P 388; 2.5 mg/kg IP) of the same molecule?
Answer: Its Number of survivors is 1/10.

Question: And the T/C % (leukemia P 388; 2.5 mg/kg IP)?
Answer: The T/C % was 166%.

Question: And the “Median day of survival” value (leukemia P 388; 5 mg/kg IP)?
Answer: Its value is 22 days.

Question: And the “Variation by weight” value (leukemia P 388; 5 mg/kg IP)?
Answer: The value was -1.0 g.

Question: What about the Number of survivors (leukemia P 388; 5 mg/kg IP) of the same molecule?
Answer: The Number of survivors was 3/10.

Question: And the T/C % (leukemia P 388; 5 mg/kg IP)?
Answer: The T/C % was 190%.

Question: And the “Median day of survival” value (leukemia P 388; 10 mg/kg IP)?
Answer: The value was 11.75 days.

Question: What about the “Variation by weight” value (leukemia P 388; 10 mg/kg IP) of the same molecule?
Answer: Its value is -1.7 g.

Question: What about the Number of survivors (leukemia P 388; 10 mg/kg IP) of the same molecule?
Answer: Its Number of survivors is 0/10.

Question: And the T/C % (leukemia P 388; 10 mg/kg IP)?
Answer: The T/C % was 102%.

Question: And the “Median day of survival” value (leukemia P 388; 20 mg/kg IP)?
Answer: Its value is 7.4 days.

Question: What about the “Variation by weight” value (leukemia P 388; 20 mg/kg IP) of the same molecule?
Answer: Its value is -4.4 g.

Question: And the Number of survivors (leukemia P 388; 20 mg/kg IP)?
Answer: Its Number of survivors is 0/10.

Question: What about the T/C % (leukemia P 388; 20 mg/kg IP) of the same molecule?
Answer: Its T/C % is 64%.

Question: And the survival at 192 h (in vivo [1])?
Answer: Its survival at 192 h is 100%.

Question: And the “Median day of survival” value (leukemia P388; 5 mg/kg IP)?
Answer: The value was 19.75 days.

Question: What about the “Variation by weight” value (leukemia P388; 5 mg/kg IP) of the same molecule?
Answer: Its value is -1.2 g.

Question: And the Number of survivors (leukemia P388; 5 mg/kg IP)?
Answer: The Number of survivors was 0/10.

Question: And the T/C % (leukemia P388; 5 mg/kg IP)?
Answer: Its T/C % is 173%.

Question: And the “Median day of survival” value (leukemia P388; 10 mg/kg IP)?
Answer: The value was 19.0 days.

Question: What about the “Variation by weight” value (leukemia P388; 10 mg/kg IP) of the same molecule?
Answer: The value was -1.4 g.

Question: And the Number of survivors (leukemia P388; 10 mg/kg IP)?
Answer: Its Number of survivors is 1/10.

Question: What about the T/C % (leukemia P388; 10 mg/kg IP) of the same molecule?
Answer: Its T/C % is 167%.

Question: What about the “Median day of survival” value (leukemia P388; 20 mg/kg IP) of the same molecule?
Answer: Its value is 18.75 days.

Question: And the “Variation by weight” value (leukemia P388; 20 mg/kg IP)?
Answer: The value was -2.5 g.

Question: And the Number of survivors (leukemia P388; 20 mg/kg IP)?
Answer: The Number of survivors was 1/10.

Question: And the T/C % (leukemia P388; 20 mg/kg IP)?
Answer: Its T/C % is 164%.

Question: And the survival at 312 h (in vivo [2])?
Answer: The survival at 312 h was 100%.

Question: What about the “Median day of survival” value (melanoma B 16; 1.25 mg/kg IP) of the same molecule?
Answer: The value was 29.75 days.

Question: And the “Variation by weight (g)” value (melanoma B 16; 1.25 mg/kg IP)?
Answer: Its value is “+1.0 g”.

Question: And the Number of survivors (melanoma B 16; 1.25 mg/kg IP)?
Answer: Its Number of survivors is 0/10.

Question: What about the T/C % (melanoma B 16; 1.25 mg/kg IP) of the same molecule?
Answer: Its T/C % is 123%.

Question: And the “Median day of survival” value (melanoma B 16; 2.5 mg/kg IP)?
Answer: Its value is 32.6 days.

Question: What about the “Variation by weight (g)” value (melanoma B 16; 2.5 mg/kg IP) of the same molecule?
Answer: Its value is “+0.1 g”.

Question: What about the Number of survivors (melanoma B 16; 2.5 mg/kg IP) of the same molecule?
Answer: Its Number of survivors is 0/10.

Question: What about the T/C % (melanoma B 16; 2.5 mg/kg IP) of the same molecule?
Answer: The T/C % was 134%.

Question: What about the “Median day of survival” value (melanoma B 16; 5 mg/kg IP) of the same molecule?
Answer: Its value is 50.0 days.

Question: What about the “Variation by weight” value (melanoma B 16; 5 mg/kg IP) of the same molecule?
Answer: The value was -0.2 g.

Question: And the Number of survivors (melanoma B 16; 5 mg/kg IP)?
Answer: The Number of survivors was 1/10.

Question: What about the T/C % (melanoma B 16; 5 mg/kg IP) of the same molecule?
Answer: Its T/C % is 206%.

Question: What about the “Median day of survival” value (melanoma B 16; 10 mg/kg IP) of the same molecule?
Answer: The value was 11.75 days.

Question: And the “Variation by weight” value (melanoma B 16; 10 mg/kg IP)?
Answer: The value was -1.9 g.

Question: What about the Number of survivors (melanoma B 16; 10 mg/kg IP) of the same molecule?
Answer: Its Number of survivors is 0/10.

Question: What about the T/C % (melanoma B 16; 10 mg/kg IP) of the same molecule?
Answer: The T/C % was 48%.
